According to patent US20220226425A1, “METHOD OF TREATING MELANOCORTIN-4 RECEPTOR PATHWAY-ASSOCIATED DISORDERS” (RHYTHM PHARMACEUTICALS, INC., priority 2015, published 2022):
One block for each compound: values may come before it. Where a SMILES comes first, the peptide text is derived from it. Bridges are numbered along the chain shown (N, C = ends). [ ]: non-standard residue; d: D form. Pen = CC(C)(S)[C@H](N)C(=O)O; hCys = N[C@@H](CCS)C(=O)O

How the values were obtained:
Assay in all cases: cAMP accumulation via β-galactosidase (β-Gal) reporter system (cAMP Hunter GPCR assay)
Format in all cases: cell-based
MC-1R = MC-1R (Homo sapiens, UniProt Q01726); conditions: ratio of EC-50 values, MC-1R versus MC-4R
MC-1R, sequence (Q01726 whole entry): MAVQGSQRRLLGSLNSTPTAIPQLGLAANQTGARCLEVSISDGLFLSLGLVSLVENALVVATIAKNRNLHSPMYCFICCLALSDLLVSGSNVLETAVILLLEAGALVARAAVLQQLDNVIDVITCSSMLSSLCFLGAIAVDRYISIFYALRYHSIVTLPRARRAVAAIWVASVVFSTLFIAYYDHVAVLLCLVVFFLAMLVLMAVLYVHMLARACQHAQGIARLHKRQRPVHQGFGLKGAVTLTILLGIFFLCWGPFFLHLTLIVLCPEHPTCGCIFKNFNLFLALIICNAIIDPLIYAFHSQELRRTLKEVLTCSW
Excerpt: (§1) cAMP Accumulation Measurement via a β-Galactosidase (β-Gal) Reporter System
(§2) A chemiluminescence readout system that uses an enzyme fragment complementation (EFC) system with β-galactosidase (β-Gal) as the functional reporter system was used. This assay system for various melanocortin receptor systems is commercially available (cAMP Hunter GPCR assay system, Discoverx Corp, Fremont, Calif.). This assay utilizes the β-Gal enzyme that is split into two complementary portions; EA for Enzyme Acceptor and ED for Enzyme Donor. In the assay, the ED portion fused to cAMP is made to compete with cAMP generated by cells for binding to a cAMP-specific antibody. The EA is then added to form active β-Gal with any unbound ED-cAMP. […] Briefly, 10000 cells per well are plated overnight and each well (cells incubated with 10 μl assay buffer) is then incubated with 4X serial concentration of the test compound in the cell assay buffer (5 μL) and cAMP antibody reagent (5 μL) for 30 min at 37° C. The cell lysis buffer (20 μL) containing ED-cAMP coupled enzyme fragment and the reporter substrate (Emerald II-Galacton Star, 5:1) is then added and incubated for 60 min at room temperature. Next, 20 μL of EA β-Gal fragment reagent is added. After further incubation for 120 min at room temperature, the chemiluminescence is measured by a plate reader (Envision).

MC-3R = MC-3R (Homo sapiens, UniProt P41968); conditions: for Selectivity Ratios MC4R/MC3R: ratio of EC-50 values, MC-3R versus MC-4R; for EC50: cAMP agonist readout, MC-3R, read-out: EC-50 (nM) MC-3R
MC-3R, sequence (P41968 whole entry): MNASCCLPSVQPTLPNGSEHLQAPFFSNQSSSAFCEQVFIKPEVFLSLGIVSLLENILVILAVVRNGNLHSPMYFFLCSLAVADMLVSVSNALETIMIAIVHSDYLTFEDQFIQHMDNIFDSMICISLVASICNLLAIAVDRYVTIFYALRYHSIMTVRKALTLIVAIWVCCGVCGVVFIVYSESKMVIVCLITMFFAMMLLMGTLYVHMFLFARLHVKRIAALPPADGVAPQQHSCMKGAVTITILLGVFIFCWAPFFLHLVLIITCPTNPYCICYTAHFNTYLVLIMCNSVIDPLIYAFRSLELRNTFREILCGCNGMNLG
Excerpt: as §1, §2

MC-5R = MC-5R (Homo sapiens, UniProt P33032); conditions: for Selectivity Ratios MC4R/MC5R: ratio of EC-50 values, MC-5R versus MC-4R
MC-5R, sequence (P33032 whole entry): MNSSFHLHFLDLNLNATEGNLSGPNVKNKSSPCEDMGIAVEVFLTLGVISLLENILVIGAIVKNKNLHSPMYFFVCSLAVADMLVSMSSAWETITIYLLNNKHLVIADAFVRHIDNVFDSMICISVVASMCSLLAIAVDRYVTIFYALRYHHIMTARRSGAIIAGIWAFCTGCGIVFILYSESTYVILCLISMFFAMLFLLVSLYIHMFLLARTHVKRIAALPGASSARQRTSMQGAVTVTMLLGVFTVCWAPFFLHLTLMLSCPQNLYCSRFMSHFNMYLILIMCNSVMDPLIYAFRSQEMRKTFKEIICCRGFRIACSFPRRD
Excerpt: as §1
A chemiluminescence readout system that uses an enzyme fragment complementation (EFC) system with β-galactosidase (β-Gal) as the functional reporter system was used. This assay system for various melanocortin receptor systems is commercially available (cAMP Hunter GPCR assay system, Discoverx Corp, Fremont, Calif.). This assay utilizes the β-Gal enzyme that is split into two complementary portions; EA for Enzyme Acceptor and ED for Enzyme Donor. In the assay, the ED portion fused to cAMP is made to compete with cAMP generated by cells for binding to a cAMP-specific antibody. The EA is then added to form active β-Gal with any unbound ED-cAMP. This active enzyme then converts a chemiluminescent substrate to generate an output signal that is recorded on a standard microplate reader. Briefly, 10000 cells per well are plated overnight and each well (cells incubated with 10 μl assay buffer) is then incubated with 4X serial concentration of the test compound in the cell assay buffer (5 μL) and cAMP antibody reagent (5 μL) for 30 min at 37° C. The cell lysis buffer (20 μL) containing ED-cAMP coupled enzyme fragment and the reporter substrate (Emerald II-Galacton Star, 5:1) is then added and incubated for 60 min at room temperature. Next, 20 μL of EA β-Gal fragment reagent is added. After further incubation for 120 min at room temperature, the chemiluminescence is measured by a plate reader (Envision).

Selectivity Ratios MC4R/MC1R (MC-1R): 35.57
Selectivity Ratios MC4R/MC3R (MC-3R): 1.75
Selectivity Ratios MC4R/MC5R (MC-5R): 101.41
SMILES: CC(=O)N[C@@H](CCCNC(=N)N)C(=O)N[C@H]1CCC(=O)NC[C@@H](C(N)=O)NC(=O)[C@H](Cc2c[nH]c3ccccc23)NC(=O)[C@H](CCCNC(=N)N)NC(=O)[C@@H](Cc2ccccc2)NC(=O)[C@H](CCC(N)=O)NC1=O [Compound 001576C, Ac-Arg-(Glu-Gln-D-Phe-Arg-Trp-Dpr)-NH2]

Selectivity Ratios MC4R/MC1R (MC-1R): 465.77
EC50 (MC-3R): > 3000 nM
Selectivity Ratios MC4R/MC3R (MC-3R): >2705.95
Selectivity Ratios MC4R/MC5R (MC-5R): 1846.64
SMILES: CC(=O)N[C@@H](CCCNC(=N)N)C(=O)N[C@H]1CCSSC(C)(C)[C@@H](C(N)=O)NC(=O)[C@H](Cc2c[nH]c3ccccc23)NC(=O)[C@H](CCCNC(=N)N)NC(=O)[C@@H](Cc2ccccc2)NC(=O)[C@H]([C@@H](C)O)NC1=O [Compound 001574C, Ac-Arg-(hCys-Thr-D-Phe-Arg-Trp-Pen)-NH2] (Ac-R[hCys]T[dF]RW[Pen]-NH2; disulfide 2-7)

More lines, now with the values behind:

SMILES: CC(=O)N[C@@H](CCCNC(=N)N)C(=O)N[C@H]1CCSSC(C)(C)[C@@H](C(N)=O)NC(=O)[C@H](Cc2c[nH]c3ccccc23)NC(=O)[C@H](CCCNC(=N)N)NC(=O)[C@@H](Cc2ccccc2)NC(=O)[C@H](CC(N)=O)NC1=O [Compound 001554C, Ac-Arg-(hCys-Asn-D-Phe-Arg-Trp-Pen)-NH2] (Ac-R[hCys]N[dF]RW[Pen]-NH2; disulfide 2-7)
Selectivity Ratios MC4R/MC1R (MC-1R): 146.75
EC50 (MC-3R): > 3000 nM
Selectivity Ratios MC4R/MC3R (MC-3R): >1872.97
Selectivity Ratios MC4R/MC5R (MC-5R): 459.17

SMILES: CC(=O)N[C@@H](CCCNC(=N)N)C(=O)N[C@H]1CSSC[C@@H](C(N)=O)NC(=O)[C@H](Cc2c[nH]c3ccccc23)NC(=O)[C@H](CCCNC(=N)N)NC(=O)[C@@H](Cc2ccccc2)NC(=O)[C@H](Cc2c[nH]cn2)NC(=O)[C@@H](C)NC1=O [RM-493, reference compound]
EC50 (MC-5R; cAMP agonist readout, MC-5R, read-out: EC-50 (nM) MC-5R): 1680 nM

SMILES: CC(=O)N[C@@H](CCCNC(=N)N)C(=O)N[C@H]1CCSSC(C)(C)[C@@H](C(N)=O)NC(=O)[C@H](Cc2c[nH]c3ccccc23)NC(=O)[C@H](CCCNC(=N)N)NC(=O)[C@@H](Cc2ccccc2)NC(=O)[C@H](CO)NC1=O [Compound 001556C, Ac-Arg-(hCys-Ser-D-Phe-Arg-Trp-Pen)-NH2] (Ac-R[hCys]S[dF]RW[Pen]-NH2; disulfide 2-7)
Selectivity Ratios MC4R/MC1R (MC-1R): 123.06
EC50 (MC-3R): > 3000 nM
Selectivity Ratios MC4R/MC3R (MC-3R): >1615.55
Selectivity Ratios MC4R/MC5R (MC-5R): 916.48

SMILES: CC(=O)N[C@@H](CCCNC(=N)N)C(=O)N[C@H]1CCSSC(C)(C)[C@@H](C(N)=O)NC(=O)[C@H](Cc2c[nH]c3ccccc23)NC(=O)[C@H](CCCNC(=N)N)NC(=O)[C@@H](Cc2ccccc2)NC(=O)[C@H](CCC(N)=O)NC1=O [Compound 001555C, Ac-Arg-(hCys-Gln-D-Phe-Arg-Trp-Pen)-NH2] (Ac-R[hCys]Q[dF]RW[Pen]-NH2; disulfide 2-7)
Selectivity Ratios MC4R/MC1R (MC-1R): 244.35
Selectivity Ratios MC4R/MC3R (MC-3R): 2.68
Selectivity Ratios MC4R/MC5R (MC-5R): 639.81
